From patent US11318143B2, “Treatment of alcohol use disorder” (priority 2017, dated 2022)

Assays:
[1] = test system: subjects with alcohol use disorder; conditions: treatment of AUD, literature, cited from earlier work; for effect size (Cohen's D): meta-analyses
[2] = test system: dopamine levels in the rat nucleus accumbens; test: in vivo microdialysis in the nucleus accumbens in awake freely moving rats; parameters: species or system Wistar rats; conditions: for extracellular dopamine levels in the dialysate (percent of baseline): FIG. 1, varenicline 1.5 mg/kg, bupropion 2.5 mg/kg i.p., sampling 140 minutes, preliminary data; for extracellular DA levels / DA release in the rat nAc: FIGS. 1 to 5, overall statement
Method: Shown are dopamine levels measured in the dialysate expressed as percent of baseline. Drugs (mg/kg) or control solution (NaCl) was injected i.p. directly after time-point 0.
FIGS. 2 and 3 show results from in vivo microdialysis in the nucleus accumbens in awake freely moving male Wistar rats after injection of varenicline (1.5 mg/kg, i.p.) or bupropion (2.5, 5 and 10 mg/kg i.p.) Dopamine levels in the dialysate are expressed as percent of baseline. Drugs or control solution (NaCl) was injected directly after time-point 0.
FIG. 5 illustrates the Area Under the Curve (AUC) 0-140 minutes (Bup 5 vs Var+Bup 5: p<0.001.
A). Experiments that examine the effects of varenicline and bupropion (separately and in combination) on dopamine release in the nucleus accumbens (nAc; a central part of the brain reward system) using in vivo microdialysis in awake, freely moving rats have commenced. […] Rats were surgically implanted with a microdialysis probe into nAc, which two days later was coupled to a perfusion pump allowing liquid sampling from the extracellular space. After a stable baseline was obtained varenicline (1.5 mg/kg, […].), bupropion (2.5 mg/kg, i.p.) or control solution was administered and sampling continued for 140 minutes. […] Further, as long as bupropion produces an effect, this effect adds to the varenicline effect when the two drugs are given in combination.

[3] = test system: alcohol dependent individuals; conditions: cited from earlier work
[4] = test system: ethanol-induced stimulation and euphoria; conditions: McKee et al. (2009); cited from earlier work
[5] = test system: nicotinic acetylcholine receptors (nAChRs); conditions: systemic administration or site-directed injections in the VTA (Blomqvist et al., 1996; Ericson et al., 1998); cited from earlier work
relapses to drinking = conditions: chronic i.m. administration (Wiesbeck et al., 2001); cited from earlier work

Row | Structure (SMILES) | Numbers-needed-to-treat (NNT) [1] | effect size (Cohen's D) [1] | extracellular dopamine levels in the dialysate (percent of baseline) [2] | extracellular DA levels / DA release in the rat nAc [2] | further results
1 | O=C1CC[C@@]2(O)[C@H]3Cc4ccc(O)c5c4[C@@]2(CCN3CC2CC2)[C@H]1O5 [Naltrexone] | 8.6 | 0.2 |  |  | 
2 | CC(NC(C)(C)C)C(=O)c1cccc(Cl)c1 (stereo not shown) [bupropion] |  |  | raise extracellular dopamine levels | increase extracellular DA levels | 
3 | c1cnc2cc3c(cc2n1)[C@@H]1CNC[C@H]3C1 [varenicline] |  |  | raise extracellular dopamine levels | increase extracellular DA levels | effect ([3]; females (O'Malley et al., 2017)): no effect; effect size ([3]; male alcoholics (O'Malley et al., 2017)): 0.45; ethanol-induced stimulation and euphoria [4]: blocked
4 | CNC1(C)C2CCC(C2)C1(C)C (stereo not shown) [mecamylamine] |  |  |  |  | ethanol intake and preference [5]: reduces
5 | CC(=O)NCCCS(=O)(=O)O [Acamprosate] | 7.5 | 0.32 |  |  | 
6 | OCCN1CCN(CC/C=C2\c3ccccc3Sc3ccc(C(F)(F)F)cc32)CC1 [fluphentixole] |  |  |  |  | relapses to drinking as compared to placebo (relapses to drinking): worsened the condition
